Test results reported in US20230126447A1, “OCULAR DRUG DEPOT FOR COMPLEMENT-MEDIATED DISORDERS” (priority 2020, published 2023).

How the values were obtained:
[1] = QWBA tissue distribution of [14C] Compound 2, Long-Evans rats (PO, IV); format: in vivo
Description: (§1) The study was conducted to determine the tissue distribution of [^14C] Compound 2-derived radioactivity following a single oral gavage (PO) administration of 20 mg/kg (100 μCi/kg) of [^14C] […] Compound 2 to a male Long-Evans rat using quantitative whole body autoradiography (QWBA).
(§2) A total of ten male Long-Evans and three male Wistar Hannover rats were administered a single PO dose of [^14C] […] One male Long-Evans rat was administered a single IV dose of [^14C] […] (See Table 3). One animal per group per strain was anesthetized by inhalation of isoflurane gas at designated time points post-dose, followed by blood collection via cardiac puncture and euthanasia by isoflurane overdose. Each carcass was then frozen in a dry ice/hexane bath. Blood and plasma samples were assayed for total radioactivity (TRA) concentrations by liquid scintillation counting (LSC). The tissue concentrations of TRA were determined using validated QWBA techniques. Pharmacokinetic parameters of derived radioactivity in blood, plasma, and tissues were calculated, to the extent possible, using Phoenix© WinNonlin® (Version 6.3, Pharsight Corporation; Mountain View, Calif.).

[2] = QWBA tissue distribution of [14C] Compound 2, Wistar Hannover rats (PO); format: in vivo; details: 20 mg/kg PO
Description: as §1, §2

[3] = In vitro binding to synthetic melanin; details: synthetic melanin 50 μg/mL, PBS, 37° C., 1 hour
Description: (§3) […] The melanin solution was stored in the dark at 37° C. until use.
(§4) Immediately after the assay, samples were added to an equal volume of warm PBS, aliquots (3 μL each) were removed, added to 100 μL of acetonitrile containing carbutamide as internal standard, and then diluted with water (197 μL). These time-zero samples, prepared in PBS only, were also used as calibration standards.
(§5) The assay plates containing samples with and without melanin were incubated in the dark with shaking at 37° C. for 1 hour. Following incubation, the samples were centrifuged for 15 minutes at approximately 4000 rpm at 37° C. to sediment the melanin. Sample supernatant (3 μL) was added to 100 μL of acetonitrile containing the internal standard and then diluted with water (197 μL).
(§6) The column was set to a temperature of 55° C. […]
(§7) Analytes and internal standards were detected using an Applied Biosystems Sciex API-5500 triple quadrupole mass spectrometer with Agilent 1260 Infinity Binary Pump and Apricot Designs ADDA High-Speed Dual Arm Autosampling System. The instrument was equipped with an electrospray ionization source (600° C.) operated in the positive ion mode. Analytes and internal standards for all samples were monitored in the multiple-reaction-monitoring scan mode.

[4] = Stability under melanin binding assay conditions; details: PBS, 37° C., 1 hour vs time zero
Description: as §3, §5
% Stability=Mean Total Conc. (μM) after 1 Hour/Mean Total Conc. (μM) at Time Zero×100%

[5] = In vitro binding to melanin from Sepia officinalis; details: S. officinalis melanin 50 μg/mL, PBS, 37° C., 1 hour
Description: as §3, §4, §5, §6, §7

[6] = molecular target: CFD (Homo sapiens, UniProt P00746); experiment: Inhibitory effect on CFD; format: biochemical
Sequence of CFD (P00746 26-253): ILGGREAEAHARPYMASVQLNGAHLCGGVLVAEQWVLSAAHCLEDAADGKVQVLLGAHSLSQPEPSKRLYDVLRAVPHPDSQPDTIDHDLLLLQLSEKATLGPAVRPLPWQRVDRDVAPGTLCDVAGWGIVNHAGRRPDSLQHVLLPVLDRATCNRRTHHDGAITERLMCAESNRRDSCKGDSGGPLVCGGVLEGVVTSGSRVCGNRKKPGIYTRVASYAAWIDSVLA

[7] = male Long-Evans rats, 20 mg/kg PO
[8] = male Wistar Hannover rats, 1 h post-dose
[9] = male Wistar Hannover rats, 24 h post-dose

## CC(=O)c1nn(CC(=O)N2[C@H](C(=O)Nc3nc(Br)ccc3C)C[C@@]3(C)C[C@@H]23)c2ccc(-c3cnc(C)nc3)cc12 [Compound 2, (1R,3S,5R)-2-(2-(3-acetyl-5-(2-methylpyrimidin-5-yl)-1H-indazol-1-yl)acetyl)-N-(6-bromo-3-methylpyridin-2-yl)-5-methyl-2-azabicyclo[3.1.0]hexane-3-carboxamide]
[1]; male Long-Evans rat, 5 mg/kg IV, […] post-dose
  Radioactivity in the central nervous system: 0.201 μg equiv/g tissue
[1]; [7]
  Tissue:plasma AUC0-t ratio, majority of tissues: greater than 1.00
  Tmax, majority of tissues: 1 h
[1]; male Long-Evans rats, 20 mg/kg PO, 48 h post-dose
  Total plasma radioactivity: BLQ
[1]; male Long-Evans rats, 20 mg/kg PO, 72 h post-dose
  Blood concentration of radioactivity: BLQ
[1]; male Long-Evans rats, 20 mg/kg PO, 840 h post-dose
  Concentration of radioactivity, eye and uveal tract: 0.212 μg equiv/g tissue
[2]; Wistar Hannover rat, 1 h post-dose
  Radioactivity in the central nervous system: 0.179 μg equiv/g tissue
[2]; male Wistar Hannover rats
  Tmax, all tissues: 1 h
[2]; [8]
  Tissue to plasma concentration ratio, brain: 0.04
  Tissue to plasma concentration ratio, cecum mucosa: 0.96
  Tissue to plasma concentration ratio, kidney medulla: 12.6
  Tissue to plasma concentration ratio, stomach wall non-glandular: 1.00
[2]; [9]
  Tissue to plasma ratio, bone marrow: 2.90
  Tissue to plasma ratio, stomach wall non-glandular: 100
[2]; male Wistar Hannover rats, 168 h post-dose
  Total plasma radioactivity: BLQ

## CCN(CC)CCCC(C)Nc1ccnc2cc(Cl)ccc12 (stereo not shown) [Chloroquine, chloroquine, reference compound]
[3]
  Bmax (binding capacity): 308 nmol/mg melanin
[4]
  Mean Stability: 87.3%
[5]
  Bmax (binding capacity): 280 nmol/mg melanin

## CC(=O)c1cn(CC(=O)N2[C@H](C(=O)Nc3nc(Br)ccc3C)C[C@@]3(C)C[C@@H]23)c2c(C)cc(-c3cnc(C)nc3)cc12 [Compound 3, (1R,3S,5R)-2-(2-(3-acetyl-7-methyl-5-(2-methylpyrimidin-5-yl)-1H-indol-1-yl)acetyl)-N-(6-bromo-3-methylpyridin-2-yl)-5-methyl-2-azabicyclo[3.1.0]hexane-3-carboxamide]
[6]
  IC50: 32.1 nM
